Measurements taken from PMC10026764, “Overcoming the imatinib-resistant BCR-ABL mutants with new ureidobenzothiazole chemotypes endowed with potent and broad-spectrum anticancer activity” (Journal of Enzyme Inhibition and Medicinal Chemistry, 2023).
Read-outs that look alike come from different tables or passages of the source.

Assays:
ABL^F317I = ABL^F317I (Homo sapiens, UniProt P00519, F317I); assay: In vitro enzymatic activity, imatinib-resistant mutant panel; format: biochemical
ABL^E255K = ABL^E255K (Homo sapiens, UniProt P00519, E255K); assay: as above
ABL^H396P = ABL^H396P (Homo sapiens, UniProt P00519, H396P); assay: as above; format: biochemical
HOP-62 [1] = assay: NCI-60 five-dose SRB assay; format: cell-based; settings: Homo sapiens; HOP-62, non-small cell lung cancer
CAKI-1 [2] = assay: NCI-60 five-dose SRB assay; format: cell-based; settings: Homo sapiens; CAKI-1, renal cancer
U251 = system: U251; design: method as in earlier work; settings: imatinib mesylate NSC 743414, NCI data; cited from earlier work
HL-60(TB) = system: HL-60(TB); design: method as in earlier work; settings: imatinib mesylate NSC 743414, NCI data; cited from earlier work
HT29 = system: HT29; design: method as in earlier work; settings: imatinib mesylate NSC 743414, NCI data; cited from earlier work
TK-10 = system: TK-10; design: method as in earlier work; settings: imatinib mesylate NSC 743414, NCI data; cited from earlier work
BT-549 = system: BT-549; design: method as in earlier work; settings: imatinib mesylate NSC 743414, NCI data; cited from earlier work
HOP-62 [3] = system: HOP-62; design: method as in earlier work; settings: imatinib mesylate NSC 743414, NCI data; cited from earlier work
SK-MEL-5 = system: SK-MEL-5; design: method as in earlier work; settings: imatinib mesylate NSC 743414, NCI data; cited from earlier work
SNB-75 = system: SNB-75; design: method as in earlier work; settings: imatinib mesylate NSC 743414, NCI data; cited from earlier work
KM12 = system: KM12; design: method as in earlier work; settings: imatinib mesylate NSC 743414, NCI data; cited from earlier work
OVCAR-8 = system: OVCAR-8; design: method as in earlier work; settings: imatinib mesylate NSC 743414, NCI data; cited from earlier work
SF-539 = system: SF-539; design: method as in earlier work; settings: imatinib mesylate NSC 743414, NCI data; cited from earlier work
SN12C = system: SN12C; design: method as in earlier work; settings: imatinib mesylate NSC 743414, NCI data; cited from earlier work
A498 = system: A498; design: method as in earlier work; settings: imatinib mesylate NSC 743414, NCI data; cited from earlier work
K-562 = system: K-562; design: method as in earlier work; settings: imatinib mesylate NSC 743414, NCI data; cited from earlier work
ACHN = system: ACHN; design: method as in earlier work; settings: imatinib mesylate NSC 743414, NCI data; cited from earlier work
SW-620 = system: SW-620; design: method as in earlier work; settings: imatinib mesylate NSC 743414, NCI data; cited from earlier work
HCT-15 = system: HCT-15; design: method as in earlier work; settings: imatinib mesylate NSC 743414, NCI data; cited from earlier work
786-0 = system: 786-0; design: method as in earlier work; settings: imatinib mesylate NSC 743414, NCI data; cited from earlier work
NCI 60-cell line panel = system: NCI 60-cell line panel; design: method as in earlier work; settings: COLO205, HCC-2998, HCT-116 and HCT-15 colon cancer cells; cited from earlier work
M14 = system: M14; design: method as in earlier work; settings: imatinib mesylate NSC 743414, NCI data; cited from earlier work
HS 578T = system: HS 578T; design: method as in earlier work; settings: imatinib mesylate NSC 743414, NCI data; cited from earlier work
NCI/ADR-RES = system: NCI/ADR-RES; design: method as in earlier work; settings: imatinib mesylate NSC 743414, NCI data; cited from earlier work
UACC-62 = system: UACC-62; design: method as in earlier work; settings: imatinib mesylate NSC 743414, NCI data; cited from earlier work
T-47D = system: T-47D; design: method as in earlier work; settings: imatinib mesylate NSC 743414, NCI data; cited from earlier work
HCC-2998 = system: HCC-2998; design: method as in earlier work; settings: imatinib mesylate NSC 743414, NCI data; cited from earlier work
MDA-MB-231 = system: MDA-MB-231; design: method as in earlier work; settings: imatinib mesylate NSC 743414, NCI data; cited from earlier work
HOP-92 = system: HOP-92; design: method as in earlier work; settings: imatinib mesylate NSC 743414, NCI data; cited from earlier work
SK-MEL-2 = system: SK-MEL-2; design: method as in earlier work; settings: imatinib mesylate NSC 743414, NCI data; cited from earlier work
MOLT-4 = system: MOLT-4; design: method as in earlier work; settings: imatinib mesylate NSC 743414, NCI data; cited from earlier work
NCI-H522 = system: NCI-H522; design: method as in earlier work; settings: imatinib mesylate NSC 743414, NCI data; cited from earlier work
COLO 205 = system: COLO 205; design: method as in earlier work; settings: imatinib mesylate NSC 743414, NCI data; cited from earlier work
MALME-3M = system: MALME-3M; design: method as in earlier work; settings: imatinib mesylate NSC 743414, NCI data; cited from earlier work
LOX IMVI = system: LOX IMVI; design: method as in earlier work; settings: imatinib mesylate NSC 743414, NCI data; cited from earlier work
SF-295 = system: SF-295; design: method as in earlier work; settings: imatinib mesylate NSC 743414, NCI data; cited from earlier work
SR = system: SR; design: method as in earlier work; settings: imatinib mesylate NSC 743414, NCI data; cited from earlier work
RXF 393 = system: RXF 393; design: method as in earlier work; settings: imatinib mesylate NSC 743414, NCI data; cited from earlier work
SK-OV-3 = system: SK-OV-3; design: method as in earlier work; settings: imatinib mesylate NSC 743414, NCI data; cited from earlier work
IGROV1 = system: IGROV1; design: method as in earlier work; settings: imatinib mesylate NSC 743414, NCI data; cited from earlier work
HCT-116 = system: HCT-116; design: method as in earlier work; settings: imatinib mesylate NSC 743414, NCI data; cited from earlier work
RPMI-8226 = system: RPMI-8226; design: method as in earlier work; settings: imatinib mesylate NSC 743414, NCI data; cited from earlier work
NCI-H322M = system: NCI-H322M; design: method as in earlier work; settings: imatinib mesylate NSC 743414, NCI data; cited from earlier work
NCI-H226 = system: NCI-H226; design: method as in earlier work; settings: imatinib mesylate NSC 743414, NCI data; cited from earlier work
CAKI-1 [4] = system: CAKI-1; design: method as in earlier work; settings: imatinib mesylate NSC 743414, NCI data; cited from earlier work

## CCN1CCN(c2ccc(NC(=O)Nc3nc4ccc(-c5ccccc5OC)cc4s3)cc2)CC1 [Compound 2b]
ABL^F317I
  IC50: 0.00516 µM
ABL^E255K
  IC50: 0.00247 µM
ABL^H396P
  IC50: < 0.001 µM

## COc1ccccc1-c1ccc2nc(NC(=O)Nc3cc(C(F)(F)F)cc(C(F)(F)F)c3)sc2c1 [Compound 2e]
HOP-62 [1]
  GI50: 2.1 µM
CAKI-1 [2]
  GI50: 2.33 µM

## Cc1ccc(NC(=O)c2ccc(CN3CCN(C)CC3)cc2)cc1Nc1nccc(-c2cccnc2)n1 [Imatinib]
U251
  GI50: 18 µM
HL-60(TB)
  GI50: 13.5 µM
HT29
  GI50: 3.97 µM
TK-10
  GI50: 26.9 µM
BT-549
  GI50: 16.1 µM
HOP-62 [3]
  GI50: 21.5 µM
SK-MEL-5
  GI50: 12.1 µM
SNB-75
  GI50: 20.3 µM
KM12
  GI50: 18.8 µM
OVCAR-8
  GI50: 27.7 µM
SF-539
  GI50: 10.6 µM
SN12C
  GI50: 33.2 µM
A498
  GI50: 22 µM
K-562
  GI50: 0.02 µM
ACHN
  GI50: 25.2 µM
SW-620
  GI50: 23.4 µM
HCT-15
  GI50: 19.9 µM
786-0
  GI50: 16 µM
NCI 60-cell line panel
  GI50: 12.6 to 21.2 µM
M14
  GI50: 19.3 µM
HS 578T
  GI50: 14.6 µM
NCI/ADR-RES
  GI50: 23 µM
UACC-62
  GI50: 19 µM
T-47D
  GI50: 19.9 µM
HCC-2998
  GI50: 21.2 µM
MDA-MB-231
  GI50: 18.7 µM
HOP-92
  GI50: 13.3 µM
SK-MEL-2
  GI50: 25 µM
MOLT-4
  GI50: 5.13 µM
NCI-H522
  GI50: 16.4 µM
COLO 205
  GI50: 17.6 µM
MALME-3M
  GI50: 16.3 µM
LOX IMVI
  GI50: 18.1 µM
SF-295
  GI50: 19.8 µM
SR
  GI50: 7.14 µM
RXF 393
  GI50: 15.1 µM
SK-OV-3
  GI50: 28.9 µM
IGROV1
  GI50: 21.2 µM
HCT-116
  GI50: 12.6 µM
RPMI-8226
  GI50: 6.05 µM
NCI-H322M
  GI50: 22.8 µM
NCI-H226
  GI50: 18.1 µM
CAKI-1 [4]
  GI50: 34 µM
